Reference: PubChem BioAssay (NCI)
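Compound exposure: 48 hours, 5 concentrations, 96-well plates. The concentration for full growth arrest is given as TGI.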

Legend:
Test in all cases: inhibition of tumour cell growth, NCI panel, 48 h
[1] = test system: HOP-62 NSCLC
[2] = test system: HOP-92 NSCLC
[3] = test system: K-562 leukemia
[4] = test system: HL-60(TB) leukemia
[5] = test system: UACC-62 melanoma
[6] = test system: SN12C renal
[7] = test system: A549 NSCLC
[8] = test system: SK-OV-3 ovarian
[9] = test system: UO-31 renal
[10] = test system: CCRF-CEM leukemia
[11] = test system: KM12 colon
[12] = test system: MALME-3M melanoma
[13] = test system: NCI-H460 lung
[14] = test system: SR leukemia
[15] = test system: ACHN renal
[16] = test system: HOP-18 NSCLC
[17] = test system: SW-620 colon
[18] = test system: OVCAR-8 ovarian
[19] = test system: HCT-15 colon
[20] = test system: HCT-116 colon
[21] = test system: TK-10 renal
[22] = test system: OVCAR-3 ovarian
[23] = test system: SNB-78 CNS
[24] = test system: SNB-75 CNS
[25] = test system: U251 CNS
[26] = test system: M14 melanoma
[27] = test system: COLO 205 colon
[28] = test system: DMS 273 small cell lung
[29] = test system: NCI-H522 lung
[30] = test system: LXFL 529 NSCLC
[31] = test system: KM20L2 colon
[32] = test system: CAKI-1 renal
[33] = test system: SF-295 CNS
[34] = test system: UACC-257 melanoma
[35] = test system: MOLT-4 leukemia
[36] = test system: SF-268 CNS
[37] = test system: SF-539 CNS
[38] = test system: RPMI-8226 leukemia
[39] = test system: EKVX NSCLC
[40] = test system: SNB-19 CNS
[41] = test system: 786-0 renal
[42] = test system: HCC-2998 colon
[43] = test system: SK-MEL-2 melanoma
[44] = test system: HT29 colon
[45] = test system: SK-MEL-28 melanoma
[46] = test system: RXF 393 renal
[47] = test system: DLD-1 colon
[48] = test system: OVCAR-5 ovarian
[49] = test system: NCI-H23 lung
[50] = test system: OVCAR-4 ovarian
[51] = test system: A498 renal
[52] = test system: IGROV1 ovarian
[53] = test system: M19-MEL melanoma
[54] = test system: LOX IMVI melanoma
[55] = test system: SK-MEL-5 melanoma
[56] = test system: DMS 114 small cell lung
[57] = test system: NCI-H226 lung

CCCn1c(SCCSc2c3ccccc3c(-c3nc(F)nc(F)n3)n2CCC)c2ccccc2c1-c1nc(F)nc(F)n1
TGI [1]: > 100 µM
TGI [2]: > 100 µM
TGI [3]: > 100 µM
TGI [4]: > 100 µM
TGI [5]: > 100 µM
TGI [6]: > 100 µM
TGI [7]: > 100 µM
TGI [8]: > 100 µM
TGI [9]: > 100 µM
TGI [10]: > 100 µM
TGI [11]: > 100 µM
TGI [12]: > 100 µM
TGI [13]: > 100 µM
TGI [14]: 60.4 µM
TGI [15]: > 100 µM
TGI [16]: > 100 µM
TGI [17]: 32.6 µM
TGI [18]: > 100 µM
TGI [19]: > 100 µM
TGI [20]: > 100 µM
TGI [21]: > 100 µM
TGI [22]: > 100 µM
TGI [23]: > 100 µM
TGI [24]: > 100 µM
TGI [25]: > 100 µM
TGI [26]: > 100 µM
TGI [27]: > 100 µM
TGI [28]: > 100 µM
TGI [29]: > 100 µM
TGI [30]: > 100 µM
TGI [31]: > 100 µM
TGI [32]: > 100 µM
TGI [33]: > 100 µM
TGI [34]: > 100 µM
TGI [35]: > 100 µM
TGI [36]: > 100 µM
TGI [37]: > 100 µM
TGI [38]: 79.7 µM
TGI [39]: > 100 µM
TGI [40]: > 100 µM
TGI [41]: > 100 µM
TGI [42]: > 100 µM
TGI [43]: > 100 µM
TGI [44]: > 100 µM
TGI [45]: > 100 µM
TGI [46]: > 100 µM
TGI [47]: 40.4 µM
TGI [48]: > 100 µM
TGI [49]: > 100 µM
TGI [50]: > 100 µM

Cc1ccc(S(=O)(=O)N/N=C(\c2nc3ccc(Cl)cc3[nH]c2=O)C(O)c2ccco2)cc1 (configuration not stated)
TGI [2]: > 100 µM
TGI [51]: > 100 µM
TGI [3]: > 100 µM
TGI [4]: > 100 µM
TGI [5]: > 100 µM
TGI [7]: > 100 µM
TGI [10]: > 100 µM
TGI [11]: > 100 µM
TGI [12]: > 100 µM
TGI [52]: > 100 µM
TGI [13]: > 100 µM
TGI [15]: > 100 µM
TGI [16]: > 100 µM
TGI [17]: > 100 µM
TGI [19]: > 100 µM
TGI [20]: > 100 µM
TGI [21]: > 100 µM
TGI [22]: > 100 µM
TGI [24]: > 100 µM
TGI [53]: > 100 µM
TGI [54]: > 100 µM
TGI [26]: > 100 µM
TGI [27]: > 100 µM
TGI [55]: > 100 µM
TGI [28]: > 100 µM
TGI [30]: > 100 µM
TGI [31]: > 100 µM
TGI [32]: > 100 µM
TGI [33]: > 100 µM
TGI [34]: > 100 µM
TGI [56]: > 100 µM
TGI [35]: > 100 µM
TGI [36]: > 100 µM
TGI [37]: > 100 µM
TGI [57]: > 100 µM
TGI [39]: > 100 µM
TGI [40]: > 100 µM
TGI [41]: > 100 µM
TGI [42]: > 100 µM
TGI [43]: > 100 µM
TGI [44]: > 100 µM
TGI [45]: > 100 µM
TGI [46]: > 100 µM
TGI [47]: > 100 µM
TGI [48]: > 100 µM
TGI [49]: > 100 µM
TGI [50]: > 100 µM
